According to PMC9828337 (Angewandte Chemie (International Ed. in English), 2022):

System: CurKC-CurALP and CurKCkinase-CurKClyase
Experiment: MST binding with or without an ATP analog
Design: species or system Thermomonospora curvata DSM43183
Settings: three replicates

## Nc1ncnc2c1ncn2[C@@H]1O[C@H](COP(=O)(O)OP(=O)(O)OP(=O)(O)O)[C@@H](O)[C@H]1O [ATP]
  effect on leader binding and lyase–kinase association: little impact on the leader binding and lyase–kinase association
